Publication doi:10.1101/866475v1, “α1A-adrenoceptor inverse agonists and agonists modulate receptor signalling through a conformational selection mechanism” (biorxiv, 2019)

How the values were obtained:
[1] = biological target: T1, WT α1A-AR (Homo sapiens, UniProt P35348); type: cell-based; conditions: inverse agonist; 100 nM
T1 construct: gene ADRA1A; wild type, pcDNA3.1, expressed in COS-7 cells
T1 sequence (P35348 1-466): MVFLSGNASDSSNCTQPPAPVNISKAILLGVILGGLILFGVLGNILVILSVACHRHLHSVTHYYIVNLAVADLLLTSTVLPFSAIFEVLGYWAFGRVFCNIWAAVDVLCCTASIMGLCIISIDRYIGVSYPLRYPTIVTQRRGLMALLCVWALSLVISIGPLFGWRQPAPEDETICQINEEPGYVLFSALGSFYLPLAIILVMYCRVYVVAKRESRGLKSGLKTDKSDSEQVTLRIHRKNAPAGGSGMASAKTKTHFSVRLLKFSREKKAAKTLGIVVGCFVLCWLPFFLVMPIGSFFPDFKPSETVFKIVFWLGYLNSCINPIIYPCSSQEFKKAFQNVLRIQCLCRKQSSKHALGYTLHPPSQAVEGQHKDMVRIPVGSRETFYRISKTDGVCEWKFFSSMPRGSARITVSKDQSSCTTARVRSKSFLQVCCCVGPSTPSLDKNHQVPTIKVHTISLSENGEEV

[2] = biological target: T2, α1A-AR-A4 (and its variants α1A-AR-A4 (L312F), α1A-AR-A4-active) (Homo sapiens, UniProt P35348, C14S/T15I/L36I/I65V/N67Y/L80M/F86Y/G127A/G143A/W151F/E171V/F312L/N322K/P327L/S329Y); assay: QAPB competition binding, purified immobilised receptor (KingFisher); conditions: 10 nM QAPB, 20 mM HEPES pH 7.5, 100 mM NaCl, 0.02% DDM, 22 °C, 2 h
T2 construct: gene ADRA1A; thermostabilised, C-terminus truncated at Ser351 plus A and His10
T2 sequence (P35348 2-351 C14S/T15I/L36I/I65V/N67Y/L80M/F86Y/G127A/G143A/W151F/E171V/F312L/N322K/P327L/S329Y): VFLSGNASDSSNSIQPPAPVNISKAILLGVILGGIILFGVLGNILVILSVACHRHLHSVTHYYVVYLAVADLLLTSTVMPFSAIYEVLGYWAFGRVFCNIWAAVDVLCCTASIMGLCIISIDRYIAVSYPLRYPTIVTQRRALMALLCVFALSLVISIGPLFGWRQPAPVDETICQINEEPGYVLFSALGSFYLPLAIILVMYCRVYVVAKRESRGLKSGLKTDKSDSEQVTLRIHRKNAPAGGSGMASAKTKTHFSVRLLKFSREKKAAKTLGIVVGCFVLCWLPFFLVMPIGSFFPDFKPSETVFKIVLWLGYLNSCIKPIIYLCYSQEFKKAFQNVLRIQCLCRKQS

| Ki [2] | Compound | NanoBiT Gq split-luciferase assay, COS-7 [1] |
| --- | --- | --- |
| – | COc1cc2nc(N3CCN(C(=O)c4ccco4)CC3)nc(N)c2cc1OC [Prazosin] | inverse agonism of prazosin, WB-4101, phentolamine and silodosin at WT α1A-AR-expressing COS-7 cells |
| 8.4 ± 1.9 nM | C[C@H](Cc1cc2c(c(C(N)=O)c1)N(CCCO)CC2)NCCOc1ccccc1OCC(F)(F)F [Silodosin] | – |
| 7.6 ± 3.4 nM | COc1cccc(OC)c1OCCNCC1COc2ccccc2O1 (stereo not drawn) [WB-4101] | – |
